Article PMC11876671, “Investigating blood–brain barrier penetration and neurotoxicity of natural products for central nervous system drug development” (Scientific Reports, 2025)
Where a name gives a salt, the structure may show the parent alone. Read-outs that look alike come from different tables or passages of the source.

Tests used:
[1] = tested on: GFP-labeled iPSC-derived human cortical glutamatergic neurons; assay: cells; type: cell-based; settings: for AC50: Table S1, total neurite length, 48 hr, head prints no unit, µM per Table 1 and Fig. 5, read-out: TNL AC50 (48 hr)
in vitro = settings: PAMPA, PAMPA-BBB Pe
[2] = tested on: GFP-labeled iPSC-derived human cortical glutamatergic neurons; assay: cells; settings: Neuron, 48 h, read-out: Viability AC50 (48hr)
[3] = Table S1, 60 min, room temperature, 0.05 mM
[4] = Table S2: compounds exhibiting moderate to high PAMPA-BBB permeability
[5] = Table S3: compounds exhibiting low PAMPA-BBB permeability

| Molecule | AC50 ([1]; Homo sapiens, Neuron) [µM] | Papp (in vitro; [3]) [×10⁻⁶ cm/s] | also measured |
| --- | --- | --- | --- |
| CC1(C)C=Cc2c(ccc(C(=O)/C=C/c3ccccc3)c2O)O1 [NCGC00187466-01] | 2.18 | 10.2 |  |
| CC(=O)c1c(O)cccc1O [NCGC00166008-01] | 1.98 | 44.7 |  |
| C=C[C@@H](C1=CC(=O)C(OC)=C(OC)C1=O)c1ccccc1 [NCGC00160161-01] | 1.07 | 69.8 | AC50 [2]: 6.54 µM; Papp (in vitro; [4]): 70 ×10⁻⁶ cm/s |
| COc1cc2c(c(OC)c1OC)-c1c(cc(OC)c(OC)c1OC)C[C@H](C)[C@H](C)C2 [Deoxyschizandrin] | 15.9 | 171 |  |
| COc1cc(C2c3cc4c(c(O)c3CC3COC(=O)C32)OCO4)cc(OC)c1O (stereo not drawn) [Alpha-Peltatin] | 0.003 | 14.2 | AC50 [2]: 0.002 µM |
| C=C(C)[C@@]12OC3(c4ccccc4)O[C@@H]1[C@@H]1[C@@H]4O[C@]4(CO)[C@@H](O)[C@]4(O)C(=O)C(C)=C[C@H]4[C@@]1(O3)[C@H](C)[C@H]2OC(=O)/C=C/C=C/c1ccccc1 [Mezerein] | 16.3 | 15.6 | AC50 [2]: 9.41 µM; Papp (in vitro; [4]): 16 ×10⁻⁶ cm/s |
| CSC(=S)NCc1c[nH]c2ccccc12 [BRASSININ] | 6.34 | 267 | PAMPA-BBB Pe [4]: 267 10^-6 cm/sec |
| S=c1ccss1 [D3T, 3H-1,2-dithiole-3-thione] | 51.2 | 97.8 |  |
| COC1=C[C@@]23CCN(C)[C@H](Cc4ccc(OC)c(O)c42)C3=CC1=O [(-)-Sinoacutine] | 15.2 | 11.5 |  |
| C[C@H]1COC2=C1C(=O)C(=O)c1c2ccc2c1CCCC2(C)C [Cryptotanshinone] | 21.1 | 12 | AC50 [2]: 19.8 µM |
| COc1cc2c(O)c3c(c(-c4ccc5c(c4)OCO5)c2cc1OC)C(=O)OC3 [NCGC00077816-01] | 11 | 187 | AC50 [2]: 6.51 µM |
| CN1CCC2=C[C@@H](O)[C@@H]3OC(=O)c4cc5c(cc4[C@H]3C21)OCO5 (stereo partly drawn) [NCGC00160234-01] | 2.22 | 22.3 | Papp (in vitro; [4]): 22 ×10⁻⁶ cm/s |
| OCC=Cc1ccccc1 [Cinnamyl alcohol] | 5.95 | 97.5 | PAMPA-BBB Pe [4]: 97 10^-6 cm/sec; Papp (in vitro; [4]): 69 ×10⁻⁶ cm/s |
| COc1ccc(/C=C/C(=O)c2ccc(O)cc2O)cc1OC [2',4'-DIHYDROXY-3,4-DIMETHOXYCHALCONE] | 5.97 | 312 | PAMPA-BBB Pe [4]: 312 10^-6 cm/sec |
| O=C1NC(=O)C(c2c[nH]c3ccccc23)=C1c1c[nH]c2ccccc12 [Bisindolylmaleimide IV] | 10.6 | > 654 | AC50 [2]: 13.9 µM |
| COc1ccc(CC(=O)c2ccc(O)cc2O)cc1 [ONONETIN] | 24.5 | 172 | PAMPA-BBB Pe [4]: 172 10^-6 cm/sec |
| Desoxycortone |  |  | AC50 [1]: 33.5 µM; PAMPA-BBB Pe [3]: 65.13 10^-6 cm/sec |
| CN1[C@@H](CC(=O)c2ccccc2)CCC[C@H]1C[C@H](O)c1ccccc1 [Lobeline hydrochloride] | 9.96 | 31.8 | AC50 [2]: 22.5 µM; Papp (in vitro; [4]): 32 ×10⁻⁶ cm/s |
| O=c1c(-c2ccc(O)cc2)coc2cc(O)cc(O)c12 [Genistein] | 33.4 | 35.4 | Papp (in vitro; [4]): 35 ×10⁻⁶ cm/s |

| Molecule | AC50 ([1]; Homo sapiens, Neuron) [µM] | Papp (in vitro; [3]) [×10⁻⁶ cm/s] | also measured |
| --- | --- | --- | --- |
| COc1cc(C)cc(O)c1 [3-methoxy-5-methylphenol] | 13.4 | 49.7 |  |
| CC(C)=CCOc1c2occc2cc2ccc(=O)oc12 [Imperatorin] | 16.7 | 160 |  |
| COC(=O)[C@@H]1[C@@H]2C[C@H]3c4[nH]c5ccccc5c4CCN3C[C@@H]2CC[C@@H]1O [Beta-yohimbine] | 11.8 |  | Papp (in vitro): 41.8 ×10⁻⁶ cm/s |
| CCOc1ccc(O)cc1 [Hydroquinone monoethyl ether] | 13.6 | 35 |  |
| O=c1c2ccccc2oc2ccccc12 [Xanthenone] | 18.6 | 173 |  |
| c1cc2c(cc1[C@H]1OC[C@H]3[C@@H]1CO[C@@H]3c1ccc3c(c1)OCO3)OCO2 [Sesamin] | 14.2 | 211 | Papp (in vitro; [4]): 211 ×10⁻⁶ cm/s |
| C=C(C)[C@H]1Cc2c(ccc3c2O[C@@H]2COc4cc(OC)c(OC)cc4[C@@H]2C3=O)O1 [rotenone, reference compound] |  |  | inhibition of cortical neurite outgrowth (total neurite length) ([1]; 24 and 48 h treatment, in words): inhibited cortical neurite outgrowth in a concentration-dependent manner |
| Cn1cccc1-c1cccnc1 [beta-NICOTYRINE] | 8.46 | 102 |  |
| CC1(C)OC1COc1c2occc2cc2ccc(=O)oc12 (stereo not drawn) [NCGC00160222-01] | 24.5 | 210 |  |
| C/C(=C\COc1c2ccoc2cc2oc(=O)ccc12)CCC(O)C(C)(C)O (stereo not drawn) [6,7-dihydroxy Bergamottin] | 6.03 | 54.7 |  |
| O=C(O)c1cc2ccccc2[nH]1 [NCGC00094957-03] |  |  | PAMPA-BBB Pe(10^-6 cm/sec) [5]: <1 10^-6 cm/sec |
| COc1ccc([C@H]2COc3c(ccc(O)c3OC)C2)c(OC)c1O [NCGC00179004-02] |  |  | PAMPA-BBB Pe [4]: 127 10^-6 cm/sec |
| CC1(C)C(=O)C=C[C@@]2(C)C1C[C@@H](O)[C@]1(C)C2CC[C@@]2(C)[C@H](c3ccoc3)OC(=O)[C@H]3O[C@]321 (stereo partly drawn) [NCGC00179150-03] |  |  | PAMPA-BBB Pe [4]: 108 10^-6 cm/sec |
| CC(=O)NCCc1c[nH]c2ccccc12 [NCGC00260786-01] |  |  | PAMPA-BBB Pe(10^-6 cm/sec) [5]: 5.7 10^-6 cm/sec |
| OC1c2ccccc2N=C2CCCN21 (stereo not drawn) [NCGC00163606-01] |  |  | PAMPA-BBB Pe(10^-6 cm/sec) [5]: 5.3 10^-6 cm/sec |
| Nc1ncnc2c1ncn2[C@@H]1O[C@H](COP(=O)(O)OP(=O)(O)OC[C@H]2OC(O)[C@H](O)[C@@H]2O)[C@@H](O)[C@H]1O (stereo partly drawn) [NCGC00163321-01] |  |  | PAMPA-BBB Pe(10^-6 cm/sec) [5]: <1 10^-6 cm/sec |
| Cc1cc(O)c(C)c(O)c1C(=O)O [NCGC00095485-03] |  |  | PAMPA-BBB Pe(10^-6 cm/sec) [5]: <1 10^-6 cm/sec |
| CO[C@@H]1[C@@H](O[C@@H]2O[C@H](C)[C@@H](O[C@H]3C[C@@](C)(O)[C@@H](OC(=O)CC(C)C)[C@H](C)O3)[C@H](N(C)C)[C@H]2O)[C@@H](CC=O)C[C@@H](C)C(=O)/C=C/[C@@H]2O[C@H]2C[C@@H](C)OC(=O)C[C@H]1OC(C)=O [Magnamycin A/Carbomycin A] | 27.1 | 31.9 | Papp (in vitro; [4]): 32 ×10⁻⁶ cm/s |
| COc1cc2c(c3oc(=O)c4c(c13)CCC4=O)[C@@H]1CCO[C@@H]1O2 [DIHYDROAFLATOXINE B1] |  |  | PAMPA-BBB Pe(10^-6 cm/sec): 2.8 10^-6 cm/sec |

| Molecule | AC50 ([1]; Homo sapiens, Neuron) [µM] | Papp (in vitro; [3]) [×10⁻⁶ cm/s] | also measured |
| --- | --- | --- | --- |
| O=C1c2ccccc2-[n+]2ccc3c([nH]c4ccccc43)c21 [NCGC00346951-03] |  |  | PAMPA-BBB Pe(10^-6 cm/sec) [5]: <1 10^-6 cm/sec |
| COc1cc2c(c3oc(=O)c4c(c13)CCC4=O)[C@@H]1C=CO[C@@H]1O2 [AFLATOXIN B1] |  |  | PAMPA-BBB Pe(10^-6 cm/sec): 7.2 10^-6 cm/sec |
| O=C/C=C/c1ccc(O)cc1 [NCGC00095729-01] |  |  | PAMPA-BBB Pe(10^-6 cm/sec) [5]: 4.5 10^-6 cm/sec |
| C=C/C(C)=C/[C@@]1(C)SC(=O)C(C)=C1O [NCGC00261593-01] |  |  | PAMPA-BBB Pe(10^-6 cm/sec) [5]: <1 10^-6 cm/sec |
| COC(=O)C[C@H]1C2(C)C[C@]34O[C@@]5(C)O[C@@]6([C@H](OC(C)=O)C(OC(C)=O)[C@]7(C)C(/C(=C(/O)C(C)C)C(=O)O[C@H]7c7ccoc7)[C@@]6(O5)[C@H](OC(C)=O)[C@@]3(O)C2OC(=O)C(C)C)[C@]14C (stereo partly drawn) [NCGC00264007-02] |  |  | PAMPA-BBB Pe [4]: 28 10^-6 cm/sec |
| CC1(C)C(=O)C=C[C@@]2(C)C1CC(=O)[C@]1(C)C2CC[C@@]2(C)[C@H](c3ccoc3)OC(=O)[C@H]3O[C@]321 (stereo partly drawn) [NCGC00179119-02] |  |  | PAMPA-BBB Pe(10^-6 cm/sec) [5]: <1 10^-6 cm/sec |
| COc1cc(C(=O)OC2C[C@H]3CC[C@@H](C2)N3C)ccc1O (stereo partly drawn) [NCGC00179405-02] |  |  | PAMPA-BBB Pe(10^-6 cm/sec) [5]: 8.5 10^-6 cm/sec |
| CCCc1cc(=O)c2ccccc2n1C [NCGC00351153-01] |  |  | PAMPA-BBB Pe [4]: 137 10^-6 cm/sec |
| \LYCORINE HYDROCHLORIDE |  |  | PAMPA-BBB Pe(10^-6 cm/sec) [5]: 3.2 10^-6 cm/sec |
| COc1c(O)cc2c(=O)oc3c(OC)c(O)cc4c(=O)oc1c2c34 [NCGC00160203-01] |  |  | PAMPA-BBB Pe(10^-6 cm/sec) [5]: <1 10^-6 cm/sec |
| CCCCCC(=O)Cc1cc(O)cc(O)c1C(=O)Oc1cc(CC(=O)CCCCC)c(C(=O)O)c(OC)c1 [NCGC00095554-03] | 6.66 |  | PAMPA-BBB Pe [3]: >1000 10^-6 cm/sec; PAMPA-BBB Pe [4]: >1000 10^-6 cm/sec |
| O=C1C=C2C=C[C@@H]3C[C@@]2(O1)[C@H]1CCCCN31 [Securinine] | 16.2 | 22 | PAMPA-BBB Pe [4]: 22 10^-6 cm/sec |
| COc1ccc(-c2coc3cc(O)ccc3c2=O)c(O)c1O [NCGC00095474-02] |  |  | PAMPA-BBB Pe [4]: 14 10^-6 cm/sec |
| COc1ccc2c(c1OC)C(=O)O[C@@H]2[C@H]1c2c(cc3c(c2OC)OCO3)CCN1C [NOSCAPINE HYDROCHLORIDE] |  |  | PAMPA-BBB Pe (PAMPA): 75 10^-6 cm/sec |
| CC(=O)Oc1ccc(/C=C/c2cc(OC(C)=O)cc(OC(C)=O)c2)cc1 [NCGC00095675-03] |  |  | PAMPA-BBB Pe [4]: 200 10^-6 cm/sec |
| CC=C1CN2CC[C@]34C(=C(C=O)[C@@H]1C[C@H]23)Nc1c(O)cccc14 [NCGC00160220-01] | 0.157 | 18.2 | PAMPA-BBB Pe [4]: 18 10^-6 cm/sec |
| CCOC(=O)c1c(C)cc(O)c(C=O)c1O [NCGC00095517-01] |  |  | PAMPA-BBB Pe [4]: 110 10^-6 cm/sec |
| O=C(OC[C@H]1O[C@H](OC(=O)c2cc(O)c(O)c(OC(=O)c3cc(O)c(O)c(O)c3)c2)[C@H](OC(=O)c2cc(O)c(O)c(OC(=O)c3cc(O)c(O)c(O)c3)c2)[C@@H](OC(=O)c2cc(O)c(O)c(OC(=O)c3cc(O)c(O)c(O)c3)c2)[C@@H]1OC(=O)c1cc(O)c(O)c(OC(=O)c2cc(O)c(O)c(O)c2)c1)c1cc(O)c(O)c(OC(=O)c2cc(O)c(O)c(O)c2)c1 [NCGC00263877-02] |  |  | PAMPA-BBB Pe(10^-6 cm/sec) [5]: <1 10^-6 cm/sec |
| COc1ccc(C(=O)OC2CC3CC[C@H](C2)N3C(C)=O)cc1OC (stereo partly drawn) [NCGC00160255-01] |  |  | PAMPA-BBB Pe [4]: 22 10^-6 cm/sec |
